Here are results for four compounds from paper PMC9072872, “Structure-based design of nucleoside-derived analogues as sulfotransferase inhibitors” (RSC Advances, 2019).

Test [1] deals with T1, TPST1 (Homo sapiens, UniProt O60507).
T1 construct: Human TPST1 (residues Lys43-Leu360) enzyme was purified as a recombinant protein; made in house
T1 sequence (O60507 43-360): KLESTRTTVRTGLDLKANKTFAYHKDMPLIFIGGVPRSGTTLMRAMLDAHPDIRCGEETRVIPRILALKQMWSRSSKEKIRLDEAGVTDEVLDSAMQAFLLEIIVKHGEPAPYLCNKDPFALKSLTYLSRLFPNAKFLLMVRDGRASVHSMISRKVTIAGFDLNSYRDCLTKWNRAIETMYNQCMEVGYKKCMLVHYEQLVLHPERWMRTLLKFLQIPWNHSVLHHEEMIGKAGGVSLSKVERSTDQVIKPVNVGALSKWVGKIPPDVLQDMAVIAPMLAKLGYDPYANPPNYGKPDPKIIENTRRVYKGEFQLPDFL
Description: Microfluidic mobility shift sulfation assay, TPST1 (fluorescent CC4-tide substrate). Type of test: biochemical. The note with it: for IC50: read-out: IC50 against TPST1. How it is done: Compounds were initially screened at 400 μM in the presence 20 nM HS2ST and 0.1 μM TPST1 respectively.
Fig. 4 Summary of enzymatic inhibition assays against HS2ST and TPST1. (A) Enzymatic analysis of HS2ST1 inhibition by a panel of PAP- and PAPS-mimetic compounds. […] HS2ST sulfotransferase activity was assayed using a fluorescent hexasaccharide substrate (2 μM) and normalised to DMSO (4% v/v) or buffer control. Data shown is mean and SD of 4 repeat experiments. (B) Full dose–response curves for selected compounds. […] HS2ST activity calculated as previously described. Data from two independent experiments are combined. (C) Enzymatic analysis of TPST1 inhibition by a panel of PAP- and PAPS-mimetic compounds. […] TPST1 activity was measured using fluorescently-labelled CC4-tide (2 μM) and normalised to DMSO (4% v/v) or buffer control. (D) Full dose–response curves for selected compounds. […] TPST1 activity was measured using CC4-tide and normalised to DMSO or buffer controls as previously described. The data shown is from duplicate experiments. […]
TPST1 peptide substrate (CC4-tide, 5-FAM-EDFED YEFDG-CONH2) was synthesised using solid-phase Fmoc chemistry (Pepceuticals, Leicester, UK). All standard laboratory biochemicals, were purchased from Sigma, and were of the highest analytical quality.
(§1) 5'-phosphosulfate, lithium salt hydrate, PAP (adenosine 3',5'-diphosphate, disodium salt), CoA (coenzymeA, sodium salt), ATP (adenosine 5’-triphosphate, disodium salt hydrate) were all purchased from Sigma and stored at -80 °C to minimise degradation.
(§2) Recombinant Protein Production and SDS-PAGE
(§3) Human TPST1 (residues Lys43-Leu360) enzyme was purified as a recombinant protein containing an N-terminal 6xHis tag as previously described. […]
Microfluidics-Based Sulfation Assay
Non-radioactive microfluidic mobility shift peptide and carbohydrate sulfation assays were performed in solution with a 12-sipper chip coated with SR8 reagent and a Perkin Elmer EZ Reader II system 8 using an EDTA-based separation buffer and real-time kinetic evaluation of substrate sulfation. Pressure and voltage settings were adjusted manually to afford optimal separation of the sulfated product and non-sulfated substrate, with a sample (sip) volume of 20 nL, and total assay tim es appropriate for the experiment. The fluorophore tagged TPST1 peptide substrate and HS2ST1 glycan substrate where detected by the EZ Reader via LED-induced fluorescence.
Individual sulfation assays were assembled in a 384 well plate in a volume of 80 µL in the presence of […]
and 5 mM MgCl2. The degree of substrate sulfation was directly calculated using EZ Reader software by measuring the sulfo-product:non-sulfated substrate ratio at each time-point. The act ivity of the sulfotransferase enzymes in the presence of biochemicals and small molecule inhibitors was quantified in ‘kinetic mode’ by monitoring the amount of sulfated product generated over the assay time, relative to control assay with no additional inhibitor molecule (DMSO or buffer control). Data was normalized with respect to these control assays, with sulfate incorporation into the substr ate limited to ~ 20% to prevent depletion of PAPS and to ensure assay linearity. K m and IC50 values were determined by non-linear regression analysis with GraphPad Prism software. […]

For test [2], the target named is T1, TPST1. The experiment in a line: Immunoblot of GST-CC4tide tyrosine sulfation by TPST1 (anti-sulfotyrosine antibody). Format: biochemical. The settings on record: compound 400 μM, GST-CC4-tide 1 μg, TPST1 0.2 μg, PAPS 5 μM, 15 min. How it is done: In order to further assess TPST1 inhibition by 2′-deoxy-PAP and compounds 1–14 using a complementary assay, immunoblotting of a TPST1 protein substrate (GST-CC4tide) was implemented with a monoclonal antibody that specifically recognises sulfotyrosine, using PAP as positive control (Fig. 5A). Compounds were screened at 400 μM in the assay. In common with the […] enzyme assay using a synthetic peptide, a broad range of inhibitory activities was observed.
Fig. 5 Immunological evaluation of TPST1 inhibition towards substrate and a Ser/Thr protein kinase counter-screen. (A) Immunoblots evaluating TPST1 sulfotransferase activity in the presence of a panel of PAP- and PAPS-mimetic compounds. […] After termination of the reaction using SDS-PAGE sample buffer, tyrosine sulfation was visualised by immunoblotting using a monoclonal sulfotyrosine antibody (top panel), with equal GST-CC4-tide and TPST1 loading confirmed using an antibody to detect 6xHis tagged proteins (bottom panel). (B) Enzymatic inhibition of PKA catalytic activity by a panel of PAP- and PAPS-mimetic compounds. PKA kinase (1 nM) was incubated with ATP (5 μM) in the presence of the appropriate nucleoside analogue (400 μM) for 30 min at 20 °C. PKA activity was calculated in real-time using fluorescently-labelled substrate peptide (2 μM) and normalised to DMSO (4% v/v) or buffer control.[77] Data in B is mean and SD of 3 individual experiments. Staurosporine is included at 40 μM as a generic inhibitor of kinase activity. […]
All standard laboratory biochemicals, were purchased from Sigma, and were of the highest analytical quality.
as §1, §2, §3
pMAL-c2x plasmid encoding an N-terminal Maltose Binding Protein (MBP) affinity tag.6 Glutathione-S-transferase (GST) tagged CC4-tide ([…]) was cloned into pOPINJ (OPPF-UK) and […]
affinity purified from BL21 (DE3) pLysS E. coli using Glutathione-Sepharose 4B (GE Healthcare). 5 For SDS-PAGE, proteins were denatured in Laemmli sample buffer, heated at 95 °C for 5 min and then analysed by SDS-PAGE with 10% (v/v) polyacrylamide gels. Gels were stained and de-stained using a standard Coomassie Brilliant Blue protocol. To evaluate protein sulfation by immunoblotting, standard western blotting procedures were followed using monoclonal anti-sulfotyrosine ant ibody clone o-1C-A2 (Millipore) generated using a phage display procedure and sulfotyrosine selection peptide antigens7 in the presence of appropriate positive and negative controls, and modifications visua lised using ECL […]
Data was normalized […]
with respect to these control assays, with sulfate incorporation into the substr ate limited to ~ 20% to prevent depletion of PAPS and to ensure assay linearity. K m and IC50 values were determined by non-linear regression analysis with GraphPad Prism software. […]
For orientation: In western blotting, separated proteins are transferred to a membrane and probed.

On to `Nc1ncnc2c1ncn2[C@H]1C[C@H](OP(=O)(O)O)[C@@H](COP(=O)(O)O)O1` [2′-deoxy-PAP], for which the concentration for half-maximal inhibition (IC50) (in general, the concentration that inhibits the measured activity by half) at TPST1 [1] worked out at 3.6 µM. Besides, the “suppression of tyrosine sulfation (immunoblot)” value (“suppression” below) on TPST1 [2] is “complete suppression”.

As to `Nc1ncnc2c1ncn2[C@H]1C[C@H](O)[C@@H](Cn2cc(P(=O)(O)O)nn2)O1` [Compound 11], the “inhibitory activity against TPST1” value at TPST1 [1] (compound 400 μM, TPST1 0.1 μM, PAPS 5 μM) is “inactive”. Also, the “suppression” value on TPST1 [2] is “inactive”.

For the compound `Nc1ncnc2c1ncn2[C@H]1C[C@H](OP(=O)(O)O)[C@@H](Cn2cc(P(=O)(O)O)nn2)O1` [Compound 12], the half-inhibitory concentration (IC50) on TPST1 [1] fell in the range of 100 to 300 µM. Moreover, the “suppression” value on TPST1 [2] is on record as “partial suppression”.

In the case of `Nc1ncnc2c1ncn2[C@H]1C[C@H](O)[C@@H](Cn2cc(P(=O)(O)OCc3ccccc3)nn2)O1` [Compound 13], on TPST1 [1], the IC50 lay in the range of 100 to 300 µM. The “suppression” value at TPST1 [2] is on record as “partial suppression”.
